These results are taken from US11214803B2, “Modulators of YAP1 expression” (Ionis Pharmaceuticals, Inc., priority 2019, dated 2022).

Strand notation (5' to 3'): a small letter for the sugar, then the base; units joined by * are phosphorothioate-linked, units joined directly phosphodiester-linked; [ ] holds rarer units or linkages, { } end groups; capitals alone tell only the bases. k = constrained ethyl (cEt); [5mC] = 5-methylcytosine; d = 2'-deoxy (DNA)

One data set has as its system Yap1 mRNA. Briefly: Antisense inhibition of human Yap1 in A-431 cells by cEt gapmers, single dose (Example 3, RTS36584). In kind it is cell-based. The settings on record: Table 8; A-431 cells, 5,000 cells per well, free uptake, 2,000 nM, approximately 48 hours; RTS36584; normalized to RIBOGREEN; Yap1 mRNA relative to untreated control cells. A digest of the protocol: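 A-431 cells (5,000/well) took up the 3-10-3 cEt gapmers by free uptake at 2,000 nM for about 48 h. Yap1 mRNA was measured by RT-qPCR with primer probe set RTS36584, normalized to RiboGreen total RNA, and given as % of untreated control.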
For “958422 (antisense kT*kT*kT*d[5mC]*dT*dT*dA*dA*d[5mC]*d[5mC]*dA*dG*d[5mC]*kG*kG*kA) [Compound 958422]”, the “YAP1 (% UTC)” value is reported as 15 % UTC. Same read-out and setting: the same measure for “958402 (antisense k[5mC]*kT*k[5mC]*dT*dT*dA*d[5mC]*dA*d[5mC]*dA*dG*d[5mC]*d[5mC]*kT*kA*kG) [Compound 958402]”: 28 % UTC. On the same count and under the same terms, the same measure for “958355 (antisense k[5mC]*kG*kT*dT*dG*dG*d[5mC]*d[5mC]*dG*dT*d[5mC]*dT*dT*kG*kG*kG) [Compound 958355]”: 51 % UTC; for “958411 (antisense k[5mC]*kT*kT*dT*dA*d[5mC]*d[5mC]*dA*dA*dA*dA*d[5mC]*dG*kA*kG*kG) [Compound 958411]”: 90 % UTC. Regarding “958418 (antisense kA*kG*kA*dG*d[5mC]*d[5mC]*dT*dA*d[5mC]*d[5mC]*dT*dG*dA*k[5mC]*kA*kT) [Compound 958418]”, the “YAP1 (% UTC)” value stood at 47 % UTC.

The same data set, now with this note: Table 9; A-431 cells, 5,000 cells per well, free uptake, 2,000 nM, approximately 48 hours; RTS36584; normalized to RIBOGREEN; Yap1 mRNA relative to untreated control cells.
On to “958526 (kA*kG*kT*dA*dA*dG*dA*dA*d[5mC]*dA*dA*dT*d[5mC]*kT*kT*kG; antisense) [Compound 958526]”, for which the “YAP1 (% UTC)” value came out at 6 % UTC. Still for that read-out and setting: the same measure for “958541 (kG*kT*kA*dT*dT*d[5mC]*dT*dA*dT*d[5mC]*d[5mC]*dA*dG*kG*kG*kT; antisense) [Compound 958541]”: 4 % UTC.

The same data set, now with this note: Table 10; A-431 cells, 5,000 cells per well, free uptake, 2,000 nM oligonucleotide, approx. 48 hours; primer probe set RTS36584; Yap1 mRNA normalized to RIBOGREEN, percent of untreated control.
For the substance “958662 (kG*kA*kA*d[5mC]*dA*dG*dA*dT*dA*dG*dG*dA*d[5mC]*kT*kA*k[5mC]; antisense) [Compound 958662]”, the “YAP1 (% UTC)” value was found to be 51 % UTC. With “958812 (kT*kA*k[5mC]*dT*dA*dT*dA*dA*dG*dA*d[5mC]*dA*d[5mC]*k[5mC]*kA*kA; antisense) [Compound 958812]”, the “YAP1 (% UTC)” value is listed as 31 % UTC. Still for that read-out and setting: the same measure for “958787 (antisense kT*kG*kG*dG*d[5mC]*dA*dA*dA*dG*dT*dT*d[5mC]*d[5mC]*kT*k[5mC]*kT) [Compound 958787]”: 67 % UTC.

The data set is the same for the next values; noted with them: Table 11; A-431 cells, 5,000 cells per well, free uptake, 2,000 nM oligonucleotide, approx. 48 hours; primer probe set RTS36584; Yap1 mRNA normalized to RIBOGREEN, percent of untreated control.
Regarding “958633 (antisense kT*kG*kT*d[5mC]*dA*dT*d[5mC]*dA*dG*dG*dT*dT*dA*kA*kG*kT) [Compound 958633]”, the “YAP1 (% UTC)” value amounted to 76 % UTC. Same read-out and setting: the same measure for “958758 (antisense k[5mC]*kT*kA*dT*dT*d[5mC]*dA*dG*dT*dG*dA*dT*d[5mC]*kT*kG*k[5mC]) [Compound 958758]”: 2 % UTC; for “958558 (kT*kT*k[5mC]*dA*d[5mC]*dA*dA*d[5mC]*d[5mC]*dA*dA*d[5mC]*dT*kA*kT*kT; antisense) [Compound 958558]”: 9 % UTC; for “958818 (kG*kT*kT*dG*dT*d[5mC]*dA*dA*d[5mC]*dT*d[5mC]*dT*dA*kG*kG*kG; antisense) [Compound 958818]”: 23 % UTC.

The same data set, now with this note: Table 12; A-431 cells, 5,000 cells per well, free uptake, 2,000 nM modified oligonucleotide, approx. 48 hours; RTS36584; normalized to RIBOGREEN; Yap1 mRNA relative to untreated control cells.
As to “958534 (kT*kT*k[5mC]*dA*dG*d[5mC]*dA*dT*dA*dG*dA*dA*dG*kT*kA*kG; antisense) [Compound 958534]”, the “YAP1 (% UTC)” value worked out at 3 % UTC. Same read-out and setting: under “958709 (antisense kT*k[5mC]*kA*dA*dT*d[5mC]*dT*dA*dT*dG*dA*dG*dA*k[5mC]*k[5mC]*k[5mC]) [Compound 958709]” stands 57 % UTC.

For the substance “958674 (kA*kA*kG*dA*dA*d[5mC]*dT*dT*dA*dG*dT*dT*d[5mC]*k[5mC]*k[5mC]*kT; antisense) [Compound 958674]”, the “YAP1 (% UTC)” value came out at 25 % UTC.

In the case of “958529 (k[5mC]*kA*kA*dG*dT*d[5mC]*dT*dT*dG*dT*dA*dA*dG*kT*kA*kA; antisense) [Compound 958529]”, the “YAP1 (% UTC)” value was found to be 3 % UTC. On to “958439 (antisense kG*k[5mC]*kG*d[5mC]*d[5mC]*d[5mC]*d[5mC]*dG*dG*d[5mC]*dT*d[5mC]*d[5mC]*kA*k[5mC]*kT) [Compound 958439]”, for which the “YAP1 (% UTC)” value amounted to 77 % UTC.

On to “958679 (kG*kT*kA*dA*d[5mC]*dT*dG*d[5mC]*d[5mC]*dA*d[5mC]*dA*dG*kT*kT*kA; antisense) [Compound 958679]”, for which the “YAP1 (% UTC)” value is given as 77 % UTC.

Still in this data set, the particulars now being: Table 13; A-431 cells, 5,000 cells per well, free uptake, 2,000 nM modified oligonucleotide, approx. 48 hours; RTS36584; normalized to RIBOGREEN; Yap1 mRNA relative to untreated control cells.
With “958665 (k[5mC]*kT*kG*d[5mC]*dA*dT*dA*d[5mC]*d[5mC]*d[5mC]*dT*d[5mC]*d[5mC]*kA*kG*k[5mC]; antisense) [Compound 958665]”, the “YAP1 (% UTC)” value came out at 84 % UTC.

For “958575 (kG*kG*k[5mC]*dT*dA*d[5mC]*dT*dG*dG*d[5mC]*dA*dA*dA*kT*kT*kA; antisense) [Compound 958575]”, the “YAP1 (% UTC)” value came out at 9 % UTC. On the same count and under the same terms, under “958555 (kG*k[5mC]*kT*dT*dA*dT*dA*dT*dT*dG*dA*dA*dG*kA*kG*kT; antisense) [Compound 958555]” stands 4 % UTC.

Staying with this data set, now noted: Table 26; Yap1 mRNA by 3-10-3 cEt gapmers targeting SEQ ID NO.: 1, and 2; percent of untreated control.
With “1074220 (antisense kA*kA*kT*dG*dA*dG*d[5mC]*dT*d[5mC]*dG*dA*dA*d[5mC]*kA*kT*kG) [compound 1074220]”, the “YAP1 (% UTC)” value was found to be 22 % UTC. The same measure, in the same setting: under “1074348 (antisense kG*kT*kA*d[5mC]*dT*d[5mC]*dT*d[5mC]*dA*dT*d[5mC]*dT*d[5mC]*kG*kA*kG) [compound 1074348]” stands 100 % UTC; under “1074956 (antisense kA*k[5mC]*k[5mC]*d[5mC]*dG*dG*dG*dT*dT*dT*dT*dT*dG*kT*k[5mC]*kA) [compound 1074956]”, 104 % UTC; under “1075244 (kA*k[5mC]*k[5mC]*d[5mC]*dA*dA*dA*dA*dA*dT*dT*d[5mC]*dT*kG*kT*kG; antisense) [compound 1075244]”, 76 % UTC. As for “1076236 (kG*kG*kA*dG*dA*dA*d[5mC]*d[5mC]*dT*dT*dA*dT*dT*kT*kA*kT; antisense) [compound 1076236]”, the “YAP1 (% UTC)” value was found to be 51 % UTC.

The same data set, now with this note: Table 27; Yap1 mRNA by 3-10-3 cEt gapmers targeting SEQ ID NO.: 1, and 2; percent of untreated control.
With “1075373 (antisense kT*kA*kT*dA*dT*dA*dT*dA*dG*dA*d[5mC]*dT*dT*kG*kA*kG) [compound 1075373]”, the “YAP1 (% UTC)” value worked out at 13 % UTC.

As for “1076045 (kG*kT*kG*d[5mC]*dA*dA*dT*dA*dA*dA*dT*dA*dG*kT*kT*k[5mC]; antisense) [compound 1076045]”, the “YAP1 (% UTC)” value was 11 % UTC. The same measure, in the same setting: the same measure for “1076365 (antisense kT*kA*kA*dG*dA*dA*dG*dG*dG*d[5mC]*d[5mC]*dA*dA*kT*kG*kG) [compound 1076365]”: 15 % UTC; for “1075885 (antisense k[5mC]*kA*kT*dT*dA*dG*dT*dA*dA*dT*dG*dA*d[5mC]*kT*kA*kA) [compound 1075885]”: 112 % UTC.

The data set is the same for the next values; noted with them: Table 28; Yap1 mRNA as percent of untreated control; 3-10-3 cEt gapmers targeting SEQ ID NO.: 1, and 2.
With “1074990 (antisense kG*k[5mC]*k[5mC]*dG*d[5mC]*dA*dA*dA*dG*dG*dA*dA*dA*kG*kG*kG) [compound 1074990]”, the “YAP1 (% UTC)” value is 108 % UTC. The same measure, in the same setting: the same measure for “1075182 (kG*kA*kT*dA*dT*dT*dA*dT*dA*dT*dT*dA*d[5mC]*kT*kA*k[5mC]; antisense) [compound 1075182]”: 61 % UTC.

Still in this data set, the particulars now being: Table 29; Yap1 mRNA as percent of untreated control; 3-10-3 cEt gapmers targeting SEQ ID NO.: 1, and 2.
On to “1076207 (kA*kG*kT*d[5mC]*dA*dA*dT*dA*dA*dA*d[5mC]*dT*dT*kA*k[5mC]*k[5mC]; antisense) [compound 1076207]”, for which the “YAP1 (% UTC)” value is 58 % UTC.

Regarding “1075599 (antisense kA*k[5mC]*k[5mC]*d[5mC]*dT*dA*dT*dA*dG*d[5mC]*dT*dT*dT*kA*kG*kG) [compound 1075599]”, the “YAP1 (% UTC)” value stood at 90 % UTC. On the same count and under the same terms, under “1074287 (antisense kA*k[5mC]*kT*dG*dA*dT*dT*d[5mC]*dT*d[5mC]*dT*dG*dG*kT*kT*k[5mC]) [compound 1074287]” stands 11 % UTC.

The data set is the same for the next values; noted with them: Table 34; Yap1 mRNA as percent of untreated control; 3-10-3 cEt gapmers targeting SEQ ID NO: 1 and 2; single dose.
As to “1075508 (kG*kA*kA*dA*dA*dA*dG*dG*dT*dT*dT*dA*dG*kG*kG*kT; antisense) [compound 1075508]”, the “YAP1 (% UTC)” value worked out at 84 % UTC. Same read-out and setting: under “1075348 (antisense kT*k[5mC]*kA*d[5mC]*dA*dA*dA*dA*d[5mC]*d[5mC]*d[5mC]*dT*dA*k[5mC]*kA*k[5mC]) [compound 1075348]” stands 96 % UTC.

Still in this data set, the particulars now being: Table 35; Yap1 mRNA as percent of untreated control; 3-10-3 cEt gapmers targeting SEQ ID NO: 1 and 2; single dose.
“1075861 (antisense kT*kA*kA*d[5mC]*dT*dA*dT*dA*dA*dG*d[5mC]*dT*dA*kT*kG*kT) [compound 1075861]”: the “YAP1 (% UTC)” value is 78 % UTC. With “1074741 (kA*kA*kG*dG*dA*d[5mC]*dT*d[5mC]*dT*dT*dA*dG*dG*kT*k[5mC]*kT; antisense) [compound 1074741]”, the “YAP1 (% UTC)” value is listed as 78 % UTC. “1075413 (antisense k[5mC]*kA*kT*dA*dA*d[5mC]*dT*dA*d[5mC]*dA*dT*d[5mC]*dG*kA*k[5mC]*kA) [compound 1075413]”: the “YAP1 (% UTC)” value turned out to be 34 % UTC. As to “1075605 (antisense k[5mC]*kG*kT*dA*dA*dA*d[5mC]*dA*dT*dT*dT*dT*dG*k[5mC]*k[5mC]*kT) [compound 1075605]”, the “YAP1 (% UTC)” value was 38 % UTC.
